{"source": "patent US8192962B2", "about": "“Processes for detecting toxic substances” (Daikin Industries, Ltd., priority 2001, dated 2012)", "system": "Energy system protein genes", "assay": "DNA chip mRNA expression in yeast, energy system protein genes (Table 4)", "format": "cell-based, Saccharomyces cerevisiae S288C", "method_in_brief": "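Ratios compare mRNA levels in stressed and control S. cerevisiae. Each toxicant was applied for two hours to log-phase cultures at 25° C. at a sub-lethal, growth-inhibiting level; fluorescent cDNA (Cy3- or Cy5-dUTP) was hybridized to a genome-wide yeast chip for over 12 h at 65° C.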"}
{"smiles": "CN(C)C(=S)SSC(=S)N(C)C", "note": "[(10), Tetramethylthiuram disulfide]", "values": [{"measurement": "The level of expressed mRNA in the presence of chemical substance/The level of expressed mRNA in the absence of chemical substance", "setting": "yeast gene YJL216C, cells incubated two hours with the chemical substance", "value": 1.3}, {"measurement": "The level of expressed mRNA in the presence of chemical substance/The level of expressed mRNA in the absence of chemical substance", "setting": "yeast gene YJR009C", "value": 1.3}, {"measurement": "The level of expressed mRNA in the presence of chemical substance/The level of expressed mRNA in the absence of chemical substance", "setting": "yeast gene YJR048W", "value": 1.5}, {"measurement": "The level of expressed mRNA in the presence of chemical substance/The level of expressed mRNA in the absence of chemical substance", "setting": "yeast gene YJR121W, cells incubated two hours with the chemical substance", "value": 1.3}, {"measurement": "The level of expressed mRNA in the presence of chemical substance/The level of expressed mRNA in the absence of chemical substance", "setting": "yeast gene YJR155W", "value": 18.8}, {"measurement": "The level of expressed mRNA in the presence of chemical substance/The level of expressed mRNA in the absence of chemical substance", "setting": "yeast gene YKL016C, cells incubated two hours with the chemical substance", "value": 1.8}, {"measurement": "The level of expressed mRNA in the presence of chemical substance/The level of expressed mRNA in the absence of chemical substance", "setting": "yeast gene YKL060C, cells incubated two hours with the chemical substance", "value": 0.8}, {"measurement": "The level of expressed mRNA in the presence of chemical substance/The level of expressed mRNA in the absence of chemical substance", "setting": "yeast gene YKL141W, cells incubated two hours with the chemical substance", "value": 0.5}, {"measurement": "The level of expressed mRNA in the presence of chemical substance/The level of expressed mRNA in the absence of chemical substance", "setting": "yeast gene YKL148C, cells incubated two hours with the chemical substance", "value": 1.7}, {"measurement": "The level of expressed mRNA in the presence of chemical substance/The level of expressed mRNA in the absence of chemical substance", "setting": "yeast gene YKR009C, cells incubated two hours with the chemical substance", "value": 2.1}, {"measurement": "The level of expressed mRNA in the presence of chemical substance/The level of expressed mRNA in the absence of chemical substance", "setting": "yeast gene YKR058W, cells incubated two hours with the chemical substance, 25° C., YPD medium", "value": 1.2}, {"measurement": "The level of expressed mRNA in the presence of chemical substance/The level of expressed mRNA in the absence of chemical substance", "setting": "yeast gene YKR097W", "value": 3.3}, {"measurement": "The level of expressed mRNA in the presence of chemical substance/The level of expressed mRNA in the absence of chemical substance", "setting": "yeast gene YLL041C, cells incubated two hours with the chemical substance", "value": 0.8}, {"measurement": "The level of expressed mRNA in the presence of chemical substance/The level of expressed mRNA in the absence of chemical substance", "setting": "yeast gene YLR038C, cells incubated two hours with the chemical substance", "value": 0.9}, {"measurement": "The level of expressed mRNA in the presence of chemical substance/The level of expressed mRNA in the absence of chemical substance", "setting": "yeast gene YLR044C, cells incubated two hours with the chemical substance", "value": 1.2}, {"measurement": "The level of expressed mRNA in the presence of chemical substance/The level of expressed mRNA in the absence of chemical substance", "setting": "yeast gene YLR134W, cells incubated two hours with the chemical substance", "value": 0.7}, {"measurement": "The level of expressed mRNA in the presence of chemical substance/The level of expressed mRNA in the absence of chemical substance", "setting": "yeast gene YLR258W, cells incubated two hours with the chemical substance", "value": 1.3}, {"measurement": "The level of expressed mRNA in the presence of chemical substance/The level of expressed mRNA in the absence of chemical substance", "setting": "yeast gene YLR284C, cells incubated two hours with the chemical substance", "value": 0.9}, {"measurement": "The level of expressed mRNA in the presence of chemical substance/The level of expressed mRNA in the absence of chemical substance", "setting": "yeast gene YLR295C, cells incubated two hours with the chemical substance, 25° C., YPD medium", "value": 1.2}, {"measurement": "The level of expressed mRNA in the presence of chemical substance/The level of expressed mRNA in the absence of chemical substance", "setting": "yeast gene YLR304C, cells incubated two hours with the chemical substance", "value": 2.2}, {"measurement": "The level of expressed mRNA in the presence of chemical substance/The level of expressed mRNA in the absence of chemical substance", "setting": "yeast gene YLR345W", "value": 4.0}, {"measurement": "The level of expressed mRNA in the presence of chemical substance/The level of expressed mRNA in the absence of chemical substance", "setting": "yeast gene YLR354C, cells incubated two hours with the chemical substance", "value": 0.9}, {"measurement": "The level of expressed mRNA in the presence of chemical substance/The level of expressed mRNA in the absence of chemical substance", "setting": "yeast gene YLR377C, cells incubated two hours with the chemical substance", "value": 1.6}, {"measurement": "The level of expressed mRNA in the presence of chemical substance/The level of expressed mRNA in the absence of chemical substance", "setting": "yeast gene YLR395C, cells incubated two hours with the chemical substance", "value": 0.9}, {"measurement": "The level of expressed mRNA in the presence of chemical substance/The level of expressed mRNA in the absence of chemical substance", "setting": "yeast gene YML087C", "value": 4.9}, {"measurement": "The level of expressed mRNA in the presence of chemical substance/The level of expressed mRNA in the absence of chemical substance", "setting": "yeast gene YML120C, cells incubated two hours with the chemical substance", "value": 1.5}, {"measurement": "The level of expressed mRNA in the presence of chemical substance/The level of expressed mRNA in the absence of chemical substance", "setting": "yeast gene YML129C, cells incubated two hours with the chemical substance", "value": 2.2}, {"measurement": "The level of expressed mRNA in the presence of chemical substance/The level of expressed mRNA in the absence of chemical substance", "setting": "yeast gene YMR073C, cells incubated two hours with the chemical substance", "value": 1.2}, {"measurement": "The level of expressed mRNA in the presence of chemical substance/The level of expressed mRNA in the absence of chemical substance", "setting": "yeast gene YMR118C", "value": 1.4}, {"measurement": "The level of expressed mRNA in the presence of chemical substance/The level of expressed mRNA in the absence of chemical substance", "setting": "yeast gene YMR205C, cells incubated two hours with the chemical substance", "value": 0.8}, {"measurement": "The level of expressed mRNA in the presence of chemical substance/The level of expressed mRNA in the absence of chemical substance", "setting": "yeast gene YMR261C, cells incubated two hours with the chemical substance", "value": 1.3}, {"measurement": "The level of expressed mRNA in the presence of chemical substance/The level of expressed mRNA in the absence of chemical substance", "setting": "yeast gene YMR267W, cells incubated two hours with the chemical substance, 25° C., YPD medium", "value": 0.8}, {"measurement": "The level of expressed mRNA in the presence of chemical substance/The level of expressed mRNA in the absence of chemical substance", "setting": "yeast gene YMR323W, cells incubated two hours with the chemical substance", "value": 1.3}, {"measurement": "The level of expressed mRNA in the presence of chemical substance/The level of expressed mRNA in the absence of chemical substance", "setting": "yeast gene YNL071W", "value": 1.2}, {"measurement": "The level of expressed mRNA in the presence of chemical substance/The level of expressed mRNA in the absence of chemical substance", "setting": "yeast gene YNL202W, cells incubated two hours with the chemical substance", "value": 1.1}, {"measurement": "The level of expressed mRNA in the presence of chemical substance/The level of expressed mRNA in the absence of chemical substance", "setting": "yeast gene YNL241C", "value": 7.4}, {"measurement": "The level of expressed mRNA in the presence of chemical substance/The level of expressed mRNA in the absence of chemical substance", "setting": "yeast gene YNL331C", "value": 36.3}, {"measurement": "The level of expressed mRNA in the presence of chemical substance/The level of expressed mRNA in the absence of chemical substance", "setting": "yeast gene YOL086C, cells incubated two hours with the chemical substance", "value": 1.2}, {"measurement": "The level of expressed mRNA in the presence of chemical substance/The level of expressed mRNA in the absence of chemical substance", "setting": "yeast gene YOL157C", "value": 4.8}, {"measurement": "The level of expressed mRNA in the presence of chemical substance/The level of expressed mRNA in the absence of chemical substance", "setting": "yeast gene YOL165C", "value": 23.3}, {"measurement": "The level of expressed mRNA in the presence of chemical substance/The level of expressed mRNA in the absence of chemical substance", "setting": "yeast gene YOR136W", "value": 3.4}, {"measurement": "The level of expressed mRNA in the presence of chemical substance/The level of expressed mRNA in the absence of chemical substance", "setting": "yeast gene YOR142W, cells incubated two hours with the chemical substance", "value": 1.5}, {"measurement": "The level of expressed mRNA in the presence of chemical substance/The level of expressed mRNA in the absence of chemical substance", "setting": "yeast gene YOR178C, cells incubated two hours with the chemical substance", "value": 1.7}, {"measurement": "The level of expressed mRNA in the presence of chemical substance/The level of expressed mRNA in the absence of chemical substance", "setting": "yeast gene YOR388C, cells incubated two hours with the chemical substance", "value": 1.4}, {"measurement": "The level of expressed mRNA in the presence of chemical substance/The level of expressed mRNA in the absence of chemical substance", "setting": "yeast gene YPL031C, cells incubated two hours with the chemical substance", "value": 1.4}, {"measurement": "The level of expressed mRNA in the presence of chemical substance/The level of expressed mRNA in the absence of chemical substance", "setting": "yeast gene YPL061W, cells incubated two hours with the chemical substance", "value": 0.7}, {"measurement": "The level of expressed mRNA in the presence of chemical substance/The level of expressed mRNA in the absence of chemical substance", "setting": "yeast gene YPL088W", "value": 2.8}, {"measurement": "The level of expressed mRNA in the presence of chemical substance/The level of expressed mRNA in the absence of chemical substance", "setting": "yeast gene YPL171C", "value": 50.6}, {"measurement": "The level of expressed mRNA in the presence of chemical substance/The level of expressed mRNA in the absence of chemical substance", "setting": "yeast gene YPL240C", "value": 2.6}, {"measurement": "The level of expressed mRNA in the presence of chemical substance/The level of expressed mRNA in the absence of chemical substance", "setting": "yeast gene YPL262W, cells incubated two hours with the chemical substance", "value": 5.8}, {"measurement": "The level of expressed mRNA in the presence of chemical substance/The level of expressed mRNA in the absence of chemical substance", "setting": "yeast gene YPL275W, cells incubated two hours with the chemical substance", "value": 1.2}, {"measurement": "The level of expressed mRNA in the presence of chemical substance/The level of expressed mRNA in the absence of chemical substance", "setting": "yeast gene YPL276W, cells incubated two hours with the chemical substance", "value": 1.8}, {"measurement": "The level of expressed mRNA in the presence of chemical substance/The level of expressed mRNA in the absence of chemical substance", "setting": "yeast gene YPR048W, cells incubated two hours with the chemical substance", "value": 2.1}, {"measurement": "The level of expressed mRNA in the presence of chemical substance/The level of expressed mRNA in the absence of chemical substance", "setting": "yeast gene YPR184W, cells incubated two hours with the chemical substance", "value": 3.2}]}
